# According to patent US20180003613A1, “Phenotypic High-Content Assay to Evaluate Drugs” (Texas Tech University System, priority 2015, published 2018):
# “Also recorded” adds a separate entry of the source.
# Legend:
# CHO cells = assay: Cytotoxicity / cell viability seen in the high content assay (HCS images); type: cell-based, Chinese hamster
# Protocol: In order to assess the ability to induce and detect an increase in the Pearson's colocalization coefficient, both AGTmi and AGT-170 cells were treated with glycerol, which is a viscous polyol compound known to enhance the stability of proteins in solution. This co-solvent shifts the native protein to more compact states and inhibits protein-protein aggregation while proteins are being refolded during biological synthesis. […] Concentrations of glycerol higher than 5% affected cell viability and prevented accurate determination of the Pearson's colocalization coefficient; for these reasons, they were avoided. To probe the robustness of the assay, the glycerol titration assay was repeated on two separate plates. […] The Z′-factor, a statistical measurement indicative of HTS-readiness, was calculated between the AGT-170 cells in absence and presence of 5% glycerol and found to be 0.58, and at 0.81 between untreated AGT-170 and AGTmi cells.
# Fresh powders, solvated in DMSO, were obtained and reformatted as ten point three fold serial dilutions and proceeded to test them in the same assay as described above. […] All data was imported into the Scripps database, assessed for quality control in terms of Z′, S:B and CV (i.e., quality controlled), and curves were fitted using a 4-parameter algorithm without constraining the top or bottom asymptote. […]
# AGTmi cells = assay: AGT/peroxisome co-localization high content assay, AGTmi cells, glycerol treatment; type: cell-based, Chinese hamster
# Protocol: After an overnight incubation time at 37 C, 95% relative humidity and 5% CO2, cells were treated with DMSO or glycerol at different concentrations. After 2 days, cells were fixed with 4% paraformaldehyde, washed 3 times with PBS and permeabilized for 10-30 min with 0.1% Triton X-100 in PBS (PBS-TX). Cells were then stained with a guinea pig anti-AGT “A1” antibody (1:10,000) and a rabbit anti-PMP70 antibody (Ab3421, 1:500) in PBS-TX containing 0.5% goat serum. After 3 PBS washes, anti-rabbit AF488 and anti-guinea pig AF546 secondary antibodies (both at 1:10,000), as well as Hoeschst at 10 ug/mL were added to each well. Images were acquired with a 20× objective on the CellInsight (Cellomics). Puncta labeled with the anti-PMP70 antibody (labeling peroxisomes) and the anti-AGT antibody are detected in the green and red channels, respectively. Colocalization of the two populations of puncta was determined via calculation of the Pearson Colocalization Coefficient using Cellomics' “Colocalization” BioApplication. […] 4 replicates per condition were done and Z′ and S:B are calculated from the untreated AGT 170 cells versus the miAGT cells.
# Image acquisition and analysis. Plates were read and images acquired with the CellInsight high content reader (Thermo Fisher Scientific, Pittsburgh, Pa.) using a 20× objective. […]
# AGT-170 cells = assay: Phenotypic cell based AGT/peroxisome co-localization high content assay (Pearson's colocalization coefficient), AGT-170 cells; set-up: species or system Chinese hamster; details: for % rescue (normalized AGT co-localization): pilot screen, 1536 well, FIG. 3, normalized to AGT-mi (high) and AGT-170 (low) DMSO controls, 4 μM final stated for pilot screen
# Protocol: After an overnight incubation time at 37 C, 95% relative humidity and 5% CO2, cells were treated with DMSO or glycerol at different concentrations. After 2 days, cells were fixed with 4% paraformaldehyde, washed 3 times with PBS and permeabilized for 10-30 min with 0.1% Triton X-100 in PBS (PBS-TX). Cells were then stained with a guinea pig anti-AGT “A1” antibody (1:10,000) and a rabbit anti-PMP70 antibody (Ab3421, 1:500) in PBS-TX containing 0.5% goat serum. After 3 PBS washes, anti-rabbit AF488 and anti-guinea pig AF546 secondary antibodies (both at 1:10,000), as well as Hoeschst at 10 ug/mL were added to each well. Images were acquired with a 20× objective on the CellInsight (Cellomics). Puncta labeled with the anti-PMP70 antibody (labeling peroxisomes) and the anti-AGT antibody are detected in the green and red channels, respectively. Colocalization of the two populations of puncta was determined via calculation of the Pearson Colocalization Coefficient using Cellomics' “Colocalization” BioApplication. Here, miAGT cells are non-mutant AGT expressing CHO cells while the mutant AGT cells are references as 170s. The concentration of glycerol used in […] is listed in both the bar graph and the scatterplot. 4 replicates per condition were done and Z′ and S:B are calculated from the untreated AGT 170 cells versus the miAGT cells.
# 384-well plate assay protocol. Briefly, AGT-170 cells (and AGTmi cells that serve as a positive control) were seeded in black, square, IQ™ 100 μ384-well plates (Aurora, Brooks, Chelmsford, Mass.) at 500 cells/wells using a Flying Reagent Dispenser (FRD, Beckman Coulter, Brea, Calif.). After an overnight incubation at 37° C., 95% relative humidity (RH) and 5% CO2, cells were treated with 100 nL test compounds or DMSO for the positive and negative wells with a pintool transfer unit (GNF). Plates were then placed in an incubator for three days at 37° C., 95% RH and 5% CO2, immunostained and acquired on a high content imager as described below.
# Immunostaining. Following treatment and incubation as described above, cells were fixed by the addition of 2× fixation solution (8% paraformaldehyde-PFA) using a FRD. Plates were then washed 3 times with PBS on the Squirt microplate washer using a 12° nozzle tilt and 15 PSI pressure according to the user's manual for washing normal binding cells in 384-well plate format (Brook, Chelmsford, Mass.). Cells were then permeabilized by dispensing a solution of 0.1% Triton X-100 in PBS (PBS-TX) and incubated for 10-30 minutes. Next, cells were stained with a guinea pig anti-AGT “A1” antibody (Danpure's Lab, London, UK; 1:10,000) and a rabbit anti-PMP70 antibody (Abcam, Cambridge, Mass.; 1:500) in PBS-TX containing 0.5% goat serum. After 3 PBS washes, anti-rabbit AF488 and anti-guinea pig AF546 secondary antibodies (Molecular Probes, Eugene, Oreg.; both at 1:10,000), as well as Hoechst at 10 μg/mL were added to each well. Thirty minutes later, plates were washed 3 times, filled with 50 μL/well of PBS and sealed with black tape.
# Image acquisition and analysis. Plates were read and images acquired with the CellInsight high content reader (Thermo Fisher Scientific, Pittsburgh, Pa.) using a 20× objective. A detailed and illustrated description of the image acquisition and analysis is presented FIGS. 1A to 1H. A maximum of 9 fields of view per well were acquired, yielding an average of ≈700 cells detected. The nuclear stain channel (Hoechst, 386 nm, 9.8 milliseconds exposure time) was used to focus on the cell layer. Puncta labeled with the anti-PMP70 antibody (labeling peroxisomes) and the anti-AGT antibody were acquired in the green (485 nm, 40 milliseconds exposure) and red (549 nm, 15 milliseconds exposure) channels, respectively. Nuclei were detected using the fixed threshold method with an intensity threshold of 300. Next, a cytoplasmic region of interest was created around each nucleus by creating a ring with a distance of 1 pixel from the nucleus and a width of 8 pixels. […]
# [1] = fresh powders, ten point three fold serial dilutions, 25 uM highest concentration, FIG. 5
compound,measurement,setting,value
OCC(O)CO [glycerol],Concentration that affected cell viability,"CHO cells; glycerol titration, prevented accurate determination of the Pearson's coefficient",higher than 5%
same,fold increase of Pearson's values,AGTmi cells,~1.10 fold
same,Effect on AGT mutant (colocalization with peroxisomes),"AGT-170 cells; 1536-well plates, 2 days treatment, FIG. 1",stabilizing the AGT mutant
same,fold increase of Pearson's colocalization coefficient,"AGT-170 cells; AGT-170 cells, glycerol treatment",1.91 fold
same,Pearson's colocalization coefficient after glycerol treatment,"AGT-170 cells; AGT-170 cells, increasing concentrations of glycerol, n=4, untreated 0.41±0.01",0.80±0.04
26-Deoxymonensin B,% rescue (normalized AGT co-localization),AGT-170 cells,73%
CC(NCCC(c1ccccc1)c1ccccc1)c1ccccc1 (stereo not shown) [Fendiline],Toxicity by eye when observing HCS images,"CHO cells; concentration response test, FIG. 5 and FIG. 6",appears toxic at higher concentrations; also recorded: appeared toxic at 10 uM
same,Activity in concentration response curves,AGT-170 cells; [1],inactive; also recorded: did not show significant activity
CC[C@@]1([C@@H]2O[C@@H]([C@H]3O[C@@](O)(CO)[C@H](C)C[C@@H]3C)C[C@@H]2C)CC[C@H]([C@]2(C)CC[C@]3(C[C@H](O)[C@@H](C)[C@@H]([C@@H](C)[C@@H](OC)[C@H](C)C(=O)O)O3)O2)O1 [Monensin],EC50 potency from concentration response curves,AGT-170 cells; [1],low micromolar potency
same,% rescue (normalized AGT co-localization),AGT-170 cells,84%
